Measurements reported in patent US20060100275A1, “Agent for treating interstitial cystitis” (KISSEI PHARMACEUTICAL CO., LTD., priority 2004, published 2006).

System: capsaicin-sensitive sensory nerve
Test: Capsaicin-induced Evans Blue pigment leakage into mouse bladder (capsaicin-sensitive sensory nerve inhibition)
Type: in vivo
Conditions: for inhibition of capsaicin-sensitive sensory nerve (summary): female Balb/c mouse bladder, capsaicin stimulation
Protocol: A female Balb/c mouse (Japan SLC) which had been anesthetized by intraperitoneally administering 0.15 ml of 20% urethane was subjected to tracheal cannulation, using a polyethylene tube PE 50. A polyethylene tube PE 10 was inserted into the bladder via a urethra, and hydrochloride of ethyl (−)-2-[4-[2-[[(1S,2R)-2-hydroxy-2-(4-hydroxyphenyl)-1-methy lethyl]amino]ethyl]-2,5-dimethylphenoxy]acetate (to be referred to as “compound 1” hereinafter), which had been dissolved in physiological saline and 2 equivalents of sodium hydroxide to a concentration of 10 μM and further diluted to various concentrations with physiological saline, was injected through the tube. After 1 hour from the injection, a solution (10 ml/kg) of Evans Blue (30 mg/kg) and capsaicin (0.3 mg/kg) dissolved in physiological saline containing 0.1% DMSO and 0.1% Tween 80 was administered through caudal vein. Precisely 5 minutes after the administration, the animal was sacrificed by cervical vertebrae dislocation to extract the bladder. After removing urine and blood from the extracted bladder, wet weight of the bladder was measured, and the extracted bladder was put into each well of a 96 well microplate into which formamide had been dispensed in 150 μl portions in advance. After soaking the bladder overnight in formamide, the pigment in the bladder tissue was determined by measuring absorbance of 100 μl of the supernatant at a wavelength of 620 nm. In addition, the amount of the Evans Blue pigment per 1 mg bladder wet weight was calculated. In this connection, a mouse in which physiological saline was injected into the bladder and the Evans Blue solution containing no capsaicin was administered thereto was used as the normal control.
The results are shown in FIG. 1 by average value ± standard deviation. Inter-group significant difference between normal control group and capsaicin stimulation group was examined by student's t-test. Inter-group significant difference between compound 1 administration group and un-administration group was examined by a one dimensional analysis of variation and subsequent Dunnett's inter-multigroup comparison. A value of p<0.05 was regarded as significant.
The pigment in the bladder tissue was determined in the same manner as in Test Example 1, except that Tolterodine was used instead of the compound 1 and Hartman's solution was used instead of the physiological saline and 2 equivalents of sodium hydroxide. In this connection, a mouse in which Hartman's solution was injected into the bladder and the Evans Blue solution containing no capsaicin was administered thereto was used as the normal control.

[1] = female Balb/c mouse, injected into the bladder 1 hour before i.v. Evans Blue 30 mg/kg + capsaicin 0.3 mg/kg, various concentrations, vs solvent group

In the case of Cc1ccc(O)c([C@H](CCN(C(C)C)C(C)C)c2ccccc2)c1 [Tolterodine, reference compound], the “inhibition of capsaicin-sensitive sensory nerve (summary)” value was “did not inhibit the capsaicin-sensitive sensory nerve” and the “amount of Evans Blue pigment in bladder tissue” value (“amount of Evans Blue pigment” for short) [1] was “Significant difference in the amount of Evans Blue pigment was not found”.

CCOC(=O)COc1cc(C)c(CCN[C@@H](C)[C@H](O)c2ccc(O)cc2)cc1C [compound 1, ethyl (−)-2-[4-[2-[[(1S,2R)-2-hydroxy-2-(4-hydroxyphenyl)-1-methylethyl]amino]ethyl]-2,5-dimethylphenoxy]acetate] was tested, and the “amount of Evans Blue pigment” value (1 μM administration group, injected into the bladder, p<0.01 vs solvent group) was “significantly reduced”, the “inhibition of capsaicin-sensitive sensory nerve (summary)” value was “markedly inhibited the capsaicin-sensitive sensory nerve” and the “amount of Evans Blue pigment” value [1] was “concentration-dependently reduced the amount of Evans Blue pigment”.
